Legend:
[1] = system: geranium petiole explants; experiment: Survival of geranium petiole explants on regeneration medium with detergents; format: cell-based, Pelargonium X hortorum; conditions: for Survival of geranium petiole explants on regeneration medium: surviving/total explants
Protocol: Tween 20, a nonionic, fatty acid ester detergent, was evaluated as a potential selective agent for use in geranium (Pelargonium X hortorum) transformation experiments by placing geranium petiole explants into tissue culture with the addition to Tween 20 to the regeneration (shooting) medium normally used in geranium transformations (Robichon et al., 1995). Tween 20 was added at three concentrations: 1%, 0.1% and 0.01%. Each treatment consisted of 40 sterilized petiole explants placed in four tissue culture plates carrying 10 explants each. Survival of the explants was assayed weekly over four weeks on these media. Potential selective agent Span 20, also a nonionic, fatty acid ester detergent, was similarly evaluated, except that concentrations of 1%, 0.5% and 0.25% were evaluated over a twelve week period of time. The nonionic detergent Triton X-100, which is not a fatty acid ester detergent, was included for comparative purposes.

[2] = system: rice grain explants; experiment: Survival of rice grain explants on regeneration medium with Span 20; format: cell-based, Oryza sativa japonica var. TP-309; conditions: for Survival of rice grain explants on regeneration medium: surviving/total explants
Protocol: Span 20 was evaluated as a potential selective agent for use in transformation of rice (Oryza sativa japonica var. TP-309) in a manner similar to that described in Examples 1 and 2, except that the regeneration (shooting) medium used was appropriate for regeneration of rice from callus produced from seeds (Hiei et al., 1997). Selection of rice normally requires longer periods of time than geranium or tomato.

[3] = system: tobacco cultivar Xanthi leaf explants; experiment: Agrobacterium transformation of tobacco with selection on detergent or kanamycin; format: cell-based, Nicotiana tabacum; conditions: for Transformation frequency (%): confirmed by PCR
Text: Transgenic tobacco (Nicotiana tabacum) cultivar “Xanthi” plants were created using the Agrobacterium tumefaciens DNA delivery method [Horsch et al., 1985] using pIPG833. Selection was on 1% or on 0.05% Tween 20 added to both shoot and root regeneration media. As a control for comparative purposes, pIPG786 was used (carrying the nptII gene for kanamycin resistance) for transformation and 100 micrograms/ml kanamycin was used for selection.
Transgenic tobacco (Nicotiana tabacum) cultivar “Xanthi” plants were created using the Agrobacterium tumefaciens DNA delivery method [Horsch et al., 1985] using pIPG833. Selection was on 1% or on 0.05% Span 20 added to both shoot and root regeneration media.
Transgenic tobacco (Nicotiana tabacum) cultivar “Xanthi” plants were created using the Agrobacterium tumefaciens DNA delivery method [Horsch et al., 1985] using pIPG875. Selection was on 1% Span 20 added to the shoot regeneration medium and 0.05% Span 20 added to the root regeneration medium.

[4] = system: geranium cv. Avenida leaf petiole explants; experiment: Agrobacterium transformation of geranium with selection on Span 20 or hygromycin; format: cell-based, Pelargonium X hortorum; conditions: for No. of rooted shoots / Transformation frequency (%) / No. of independent petiole explants forming shoots: geranium Avenida, pIPG833 bovine PGE, 160 explants; for Transformation frequency (%): confirmed by PCR; for No. of independent petiole explants forming shoots: half in root medium; for Leaf petioles killed: Span 20 at 1%
Text: Transgenic geranium (Pelargonium X hortorum) cv. “Avenida” plants were created using the Agrobacterium tumefaciens DNA delivery method [Riggs et al., 2001; Sun et al., 2006] using pIPG833. Selection of leaf petiole explants was on 1%, 0.5% and 0.25% Span 20 added to shoot regeneration medium; beginning after three weeks, any shoots that emerged were excised from the petiole piece and transferred to root regeneration medium supplemented with Span at one half the concentration used in the shoot regeneration medium. As a control for comparative purposes, pIPG835 was used (carrying the hygromycin antibiotic resistance gene) for transformation and 10 micrograms/ml hygromycin was used for selection. Span 20 at 1% concentration killed 35% of the leaf petioles after three weeks, and 100% of the petioles after 10 weeks, and no shoots emerged. Span 20 at 0.5% concentration was highly efficient for geranium transformation, allowing no escapes and giving the same confirmed transformation frequency as Span 20 at 0.25%.

[5] = system: rice var. TP-309 callus produced from seeds; experiment: Agrobacterium transformation of rice with selection on Span 20; format: cell-based, Oryza sativa japonica var. TP-309; conditions: for No. of rooted shoots / Transformation frequency (%) / No. of shoots emerged from seed-derived callus: rice TP-309, pIPG833 bovine PGE, 60 explants; for Transformation frequency (%): confirmed by PCR; for No. of shoots emerged from seed-derived callus: half in root medium
Text: Transgenic rice (Oryza sativa japonica var. TP-309) plants were created using the Agrobacterium tumefaciens DNA delivery method and pIPG833, using callus produced from seeds (Hiei et al., 1997). Selection of was on 1% and 0.5% Span 20 added to shoot regeneration medium; any shoots that emerged were excised from the callus and transferred to root regeneration medium supplemented with Span 20 at one half the concentration used in the shoot regeneration medium. Span 20 at 1% concentration killed over 90% of the callus pieces after 15 weeks and since no shoots emerged, the experiment was terminated. However, three shoots out of 60 rice seeds initially placed into tissue culture emerged on Span 20 and two of these were positive for bovine PGE.

[6] = system: tobacco cultivar Xanthi leaf explants; experiment: Agrobacterium transformation of tobacco with selection on detergent or kanamycin; format: cell-based, Nicotiana tabacum; conditions: pIPG833 bovine PGE, 0.5% Span 20, 70 explants
[7] = tobacco Xanthi, nematode lipase (pIPG875), 1% Span 20 shoot medium, 0.05% root medium, 50 explants
[8] = tobacco Xanthi, pIPG833 bovine PGE, 0.5% Span 20, 70 explants
[9] = tobacco Xanthi, pIPG833 bovine PGE, 1% Span 20, 75 explants

## CCCCCCCCCCCC(=O)OCC(O)C1OCC(O)C1O (stereo not drawn) [Span 20]
[1]; 0.5% detergent, Week 1
  Survival of geranium petiole explants on regeneration medium: 46/46
[1]; 0.5% detergent, Week 3
  Survival of geranium petiole explants on regeneration medium: 35/46
[1]; 0.5% detergent, Week 7
  Survival of geranium petiole explants on regeneration medium: 23/46
[1]; 0.5% detergent, Week 12
  Survival of geranium petiole explants on regeneration medium: 5/46
[1]; 1% detergent, Week 1
  Survival of geranium petiole explants on regeneration medium: 114/114
[1]; 1% detergent, Week 3
  Survival of geranium petiole explants on regeneration medium: 74/114
[1]; 1% detergent, Week 7
  Survival of geranium petiole explants on regeneration medium: 11/114
[1]; 1% detergent, Week 12
  Survival of geranium petiole explants on regeneration medium: 0/114
[1]; summary of Table 1
  Killing of geranium explants in tissue culture (in words): required twelve weeks to completely kill all geranium explants at the 1% level
[2]; 0.5% Span 20, Week 4
  Survival of rice grain explants on regeneration medium: 60/60
[2]; 0.5% Span 20, Week 14
  Survival of rice grain explants on regeneration medium: 12/60
[2]; 0.5% Span 20, Week 20
  Survival of rice grain explants on regeneration medium: 2/60
[2]; 1% Span 20, Week 4
  Survival of rice grain explants on regeneration medium: 60/60
[2]; 1% Span 20, Week 14
  Survival of rice grain explants on regeneration medium: 5/60
[2]; 1% Span 20, Week 20
  Survival of rice grain explants on regeneration medium: 0/60
[2]; 1% Span 20, summary of Table 3
  Killing of rice explants in tissue culture (in words): completely killed all rice explants in twenty weeks
[3]; regeneration medium with 0.05% detergent
  Tissue provided with pIPG833 producing shoots: 41%
[3]; regeneration medium with 1% detergent
  Tobacco leaf material provided with bovine PGE on pIPG833 producing green shoots: 17%
[3]; [7]
  No. of independent calli forming shoots: 23
  No. of rooted shoots: 10
  Transformation frequency (%): 39%
[3]; tobacco Xanthi, pIPG833, detergent at the 0.05% level
  Transformation efficiency: 12%
[3]; [8]
  No. of independent calli forming shoots: 29
  Transformation frequency (%): 12%
[3]; [9]
  No. of rooted shoots: 13
  Transformation frequency (%): 8%
[3]; tobacco Xanthi, pIPG833 bovine PGE, 1% Span 20 in shoot and root media, 75 explants
  No. of independent calli forming shoots: 13
[3]; tobacco, pIPG875 nematode lipase, 0.05% Span 20 on rooting medium
  Fate of shoots on rooting medium: more than half of the shoots died
[4]; 0.25% Span 20
  No. of rooted shoots: 33
  Transformation frequency (%): 4%
[4]; 0.25% Span 20 shoot medium
  No. of independent petiole explants forming shoots: 33
[4]; 0.5% Span 20
  No. of rooted shoots: 6
  Transformation frequency (%): 4%
[4]; 0.5% Span 20 shoot medium
  No. of independent petiole explants forming shoots: 6
[4]; 1% Span 20
  No. of rooted shoots: 0
  Transformation frequency (%): 0%
[4]; 1% Span 20 shoot medium
  No. of independent petiole explants forming shoots: 0
[4]; geranium, pIPG833, Span 20 at 0.25% in shooting medium and 0.125% in rooting medium
  Nontransgenic escape plants: 81%
[4]; geranium, pIPG833, after 10 weeks
  Leaf petioles killed: 100%
[4]; geranium, pIPG833, after three weeks
  Leaf petioles killed: 35%
[5]; 0.5% Span 20
  No. of rooted shoots: 2
  Transformation frequency (%): 3%
[5]; 0.5% Span 20 shoot medium
  No. of shoots emerged from seed-derived callus: 3
[5]; 1% Span 20
  No. of rooted shoots: 0
  Transformation frequency (%): 0%
[5]; 1% Span 20 shoot medium
  No. of shoots emerged from seed-derived callus: 0
[5]; rice, pIPG833, Span 20 at 1%, after 15 weeks
  Callus pieces killed: over 90%
[6]
  No. of rooted shoots: 28
